Like-named read-outs stand apart in the source and are kept apart here.
What was measured:
[1] = test system: Hedgehog pathway activation on 10T1/2/Smo#3 cells (C3H10T1/2 cells transfected with human Smoothened receptor); test: Hedgehog pathway activation on 10T1/2/Smo#3 cells measured by ALP activity; format: cell-based
How it was run: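 Inhibition of alkaline phosphatase induction, read fluorometrically from 4-methylumbelliferyl phosphate conversion, gave IC50 values; CellTiter-Blue tracked viability in parallel. Cells were the human Smo-transfected 10T1/2/Smo#3 pool, stimulated by 10-20% hShh conditioned medium or the Smo agonist SAG (500 nM).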

[2] = test system: Hedgehog pathway activation (GLi-luciferase reporter) in Shh Light II reporter cells; test: Hedgehog pathway activation on Shh Light II reporter cells measured by luciferase activity; format: cell-based
How it was run: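 Shh Light II reporter cells carrying a hedgehog-responsive GLi-luciferase reporter were stimulated either with 500 nM SAG, a direct Smoothened agonist, or with conditioned media containing human Sonic Hedgehog (hShh). Test compounds were evaluated for blocking this pathway activation, quantified by luciferase activity. Cell viability was monitored in parallel with the Celltiter-Blue® assay.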

[3] = Mus musculus, C3H 10T1/2, 10T1/2/Smo#3 cells, measured by ALP activity, read-out: ALP (IC50, inhibition of Hedgehog pathway activation)
[4] = Mus musculus, Shh Light II, hShh activation, read-out: Shh (IC50, inhibition of Hedgehog pathway activation)
[5] = Mus musculus, C3H 10T1/2, 10T1/2/Smo#3 cells, hShh activation, ALP activity, read-out: 10T1/2/Smo#3 ALP activity (hShh Activation)
[6] = Mus musculus, Shh Light II, SAG activation (500 nM SAG), read-out: Shh Light II luciferase activity (SAG activation)
[7] = Mus musculus, Shh Light II, hShh activation, read-out: Shh Light II luciferase activity (hShh activation)

Row | Structure (SMILES) | IC50 [1, 3] [nM] | IC50 [2, 4] [nM] | IC50 [1, 5] [nM] | IC50 [2, 6] [nM] | IC50 [2, 7] [nM] | IC50 ([1]; 10T1/2/Smo#3 cells, measured by ALP activity, read-out: ALP (IC50, inhibition of Hedgehog pathway activation)) [nM] | IC50 ([2]; hShh activation, read-out: Shh (IC50, inhibition of Hedgehog pathway activation)) [nM]
1 | CSc1ccc2nc(-c3ccc(C(F)(F)F)c(NC(=O)C(C)(C)C)c3)cn2n1 [Example 135, N-(5-(6-(methylthio)imidazo[1,2-b]pyridazin-2-yl)-2-(trifluoromethyl)phenyl)pivalamide] | 5230 | 1250 |  |  |  |  | 
2 | Cc1ccc(-c2cn3nc(-c4cc(Cl)cnc4F)ccc3n2)cc1NC(=O)C(C)(C)C [Example 279, N-(5-(6-(5-chloro-2-fluoropyridin-3-yl)imidazo[1,2-b]pyridazin-2-yl)-2-methylphenyl)pivalamide] | 129 | 282 |  |  |  |  | 
3 | CC(C)(C)C(=O)Nc1cc(-c2cn3nc(Cc4ccccc4)ccc3n2)ccc1C(F)(F)F [Example 231, N-(5-(6-benzylimidazo[1,2-b]pyridazin-2-yl)-2-(trifluoromethyl)phenyl)pivalamide] |  | 905 | 300 to 3000 | 3000 to 30000 | 300 to 3000 |  | 
4 | COc1ccc2nc(-c3ccc(Cl)c(NC(=O)C(C)(C)C)c3)cn2n1 [Example 110, N-(2-chloro-5-(6-methoxyimidazo[1,2-b]pyridazin-2-yl)phenyl)pivalamide] | 8040 | > 10000 |  |  |  |  | 
5 | COc1ccc2nc(-c3ccc(C)c(NC(=O)C(C)(C)C)c3)c(-c3ccc(F)cc3)n2n1 [Example 114, N-(5-(3-(4-fluorophenyl)-6-methoxyimidazo[1,2-b]pyridazin-2-yl)-2-methylphenyl)pivalamide] | > 10000 | 7660 | 3000 to 30000 | 3000 to 30000 | 3000 to 30000 |  | 
6 | Cc1ccc(-c2cn3nc(N4CCC(C(N)=NO)CC4)ccc3n2)cc1NC(=O)C(C)(C)C [compound 566] | 371 | 285 |  |  |  |  | 
7 | CC(C)(C)C(=O)Nc1cc(-c2cn3ncccc3n2)ccc1Cl [Example 113, N-(2-chloro-5-(imidazo[1,2-b]pyridazin-2-yl)phenyl)pivalamide] | 1560 | 1000 | 300 to 3000 | 3000 to 30000 | 300 to 3000 |  | 
8 | COc1ccc2nc(-c3ccc(C)c(NC(=O)c4ccccc4F)c3)cn2n1 [Example 96, 2-fluoro-N-(5-(6-methoxyimidazo[1,2-b]pyridazin-2-yl)-2-methylphenyl)benzamide] | 1090 | 398 | 300 to 3000 | 300 to 3000 | 300 to 3000 |  | 
9 | CC(=O)NC1CCN(c2ccc3nc(-c4ccc(C(F)(F)F)c(NC(=O)C(C)(C)C)c4)cn3n2)C1 (stereo not shown) [Example 351, N-(5-(6-(3-acetamidopyrrolidin-1-yl)imidazo[1,2-b]pyridazin-2-yl)-2-(trifluoromethyl)phenyl)pivalamide] | 21 | 38 |  |  |  |  | 
10 | CCc1ccc(-c2cn3nc(-c4cccnc4C(F)(F)F)ccc3n2)cc1NC(=O)C1(C)CC1 [Example 636, N-(2-ethyl-5-(6-(2-(trifluoromethy)pyridin-3-y)imidazo[1,2-b]pyridazin-2-yl)phenyl)-1-methylcyclopropanecarboxamide] |  |  |  |  |  | 35 | 131
11 | CCCC(C)(C)C(=O)Nc1cc(-c2cn3nc(-c4cccnc4C(F)(F)F)ccc3n2)ccc1Cl [Example 667, N-(2-chloro-5-(6-(2-(trifluoromethyl)pyridin-3-yl)imidazo[1,2-b]pyridazin-2-yl)phenyl)-2,2-dimethylpentanamide] | 203 | 64 |  |  |  |  | 
12 | COCCNC1CCN(c2ccc3nc(-c4ccc(C(F)(F)F)c(NC(=O)C(C)(C)C)c4)cn3n2)CC1 [Example 368, N-(5-(6-(4-(2-methoxyethylamino)piperidin-1-yl)imidazo[1,2-b]pyridazin-2-yl)-2-(trifluoromethyl)phenyl)pivalamide] | 321 | 118 |  |  |  |  | 
13 | Cc1ccc(-c2cn3nc(-c4ncccc4C(F)(F)F)ccc3n2)cc1NC(=O)C(C)(C)C [Example 400, N-(2-methyl-5-(6-(3-(trifluoromethyl)pyridin-2-yl)imidazo[1,2-b]pyridazin-2-yl)phenyl)pivalamide] | 39 | 11 | < 300 | < 300 | < 300 |  | 
